Measurements as given in patent publication US20210255184A1, “Biosensor Device and Methods” (The New Zealand Institute for Plant and Food Research …, priority 2018, published 2021).

How the values were obtained:
[1] = molecular target: T1, DOr85b/Orco (Drosophila melanogaster, UniProt Q9VHQ6); conditions: cited from earlier work
T1 construct: host or cells: Xenopus oocytes
T1 sequence (Q9VHQ6 1-389): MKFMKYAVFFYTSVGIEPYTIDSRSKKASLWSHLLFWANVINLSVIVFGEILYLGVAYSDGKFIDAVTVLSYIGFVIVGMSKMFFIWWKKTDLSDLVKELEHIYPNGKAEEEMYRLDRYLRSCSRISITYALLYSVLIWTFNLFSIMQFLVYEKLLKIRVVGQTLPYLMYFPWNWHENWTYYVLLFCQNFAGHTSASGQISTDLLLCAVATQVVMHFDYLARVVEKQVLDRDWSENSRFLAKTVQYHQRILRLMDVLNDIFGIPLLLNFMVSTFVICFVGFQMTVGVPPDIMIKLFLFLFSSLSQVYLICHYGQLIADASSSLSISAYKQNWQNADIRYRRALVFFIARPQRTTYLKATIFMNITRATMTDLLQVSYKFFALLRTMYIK
T1 sequence (Q9VNB5 1-486 partner): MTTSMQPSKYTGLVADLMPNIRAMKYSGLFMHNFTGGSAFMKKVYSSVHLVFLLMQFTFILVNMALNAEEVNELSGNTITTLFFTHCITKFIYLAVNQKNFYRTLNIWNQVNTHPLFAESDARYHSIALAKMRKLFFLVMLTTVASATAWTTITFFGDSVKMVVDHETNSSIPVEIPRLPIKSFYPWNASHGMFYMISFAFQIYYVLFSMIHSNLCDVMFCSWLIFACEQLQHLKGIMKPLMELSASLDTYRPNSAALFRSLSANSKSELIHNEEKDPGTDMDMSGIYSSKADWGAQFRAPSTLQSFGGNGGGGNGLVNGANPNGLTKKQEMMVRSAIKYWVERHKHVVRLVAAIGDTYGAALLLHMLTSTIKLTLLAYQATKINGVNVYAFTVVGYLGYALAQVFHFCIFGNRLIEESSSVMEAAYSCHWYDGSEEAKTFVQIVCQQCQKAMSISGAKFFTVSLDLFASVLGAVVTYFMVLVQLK

[2] = molecular target: T2, Or71a/Orco (Drosophila melanogaster, UniProt Q9VUK5); assay: Droplet interface bilayer ion channel recording, Or71a/Orco; format: biochemical; conditions: DIB, 10 μM ligand, holding potential 0 mV and −100 mV
T2 construct: his-tag; made in house; host or cells: baculovirus-infected Sf9 cells
T2 sequence (Q9VUK5 1-378): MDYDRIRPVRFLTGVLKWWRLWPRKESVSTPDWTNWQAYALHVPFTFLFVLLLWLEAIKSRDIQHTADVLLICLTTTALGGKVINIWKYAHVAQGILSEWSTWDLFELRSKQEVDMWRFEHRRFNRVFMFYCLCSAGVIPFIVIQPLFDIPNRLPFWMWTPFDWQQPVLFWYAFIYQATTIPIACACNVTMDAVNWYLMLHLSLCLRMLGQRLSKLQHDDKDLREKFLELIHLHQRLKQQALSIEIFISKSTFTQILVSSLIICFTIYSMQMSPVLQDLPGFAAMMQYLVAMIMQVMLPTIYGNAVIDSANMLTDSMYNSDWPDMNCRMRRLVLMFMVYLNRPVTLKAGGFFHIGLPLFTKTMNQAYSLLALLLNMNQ
T2 sequence (Q9VNB5 1-486 partner): T1 sequence (Q9VNB5 1-486 partner)
Procedure: Bilayers were formed between two droplets formed within a PMMA chamber filled with 1 mg/ml DPhPC in undecane and AR20 silicone oil (1:1 ratio). The first step in this process was to deposit a 50 nl droplet onto the stationary silver electrode positioned at the base of the well; this droplet consisted of an aqueous solution containing 300 mM NaCl, 10 mM HEPES (pH 7.4), containing the odorant receptor proteins in proteoliposomes (at a 1:20 dilution from the proteoliposome preparation), […] The second droplet was mounted onto a second silver electrode which was held in the oil and lipid mixture using a YOU-3 manipulator (Narishige, Japan). […] Once the droplets were in contact a bilayer formed spontaneously within 1 minute (as determined by visual assessment and an increase in the bilayer capacitance as measured with a capacitance voltage protocol using the Pico2 amplifier). Insertion of an active channel was determined by a change in current while clamping the voltage at 50 mV. […]
Currents were recorded with a Pico2 or an eONE-HS amplifier (Tecella, USA and Elements, Italy, respectively) with built-in digitizers, operating in gap-free acquisition mode at a sampling frequency of 20 kHz, and using a 0.8 or 1.5 kHz low pass filter. […]
Data were analysed using ANA (Dr Pusch, Genoa), EDR (Elements, Italy) and WinWCP (Dr Dempster, University of Strathclyde). […]

[3] = tested on: BmOR3/Orco; conditions: ref 14; * estimated visually from graph; cited from earlier work
[4] = tested on: BmOR1/Orco; conditions: ref 14; * estimated visually from graph; cited from earlier work
[5] = EIS sensor, empty liposomes (specificity control); format: biochemical; conditions: empty liposomes without receptor
Procedure: PBS solution was prepared by immersing one tablet of PBS in 200 ml of milli-Q water (according to manufacturers instructions) and filtered using 0.2-μm syringe filter. The pH of the prepared buffer solution was measured with a pH meter. OrX liposomes or OrX/Orco liposomes were diluted 100 fold in PBS buffer solution (pH=7.4) and the COOH-activated electrodes were incubated in that buffer solution at room temperature for one hour. Then, the electrodes were washed extensively with PBS buffer solution to wash out any unbound liposomes.
(§1) PBS (pH=7.4) was used as an electrolyte to conduct electrochemical measurements. PBS buffer was degassed for about 30 minutes prior to electrochemical measurements. Odorant solutions of concentration ranging from 1 aM to 1 μM were prepared by sequential dilution in PBS solution containing 1% DMSO. OR immobilized electrodes were incubated in relevant odorant solution for ˜30 minutes each and washed gently with PBS before EIS measurements.
(§2) EIS measurements were done in a 3 electrode cell containing Ag/AgCl (3 M NaCl, 0.209 V vs. SHE) reference electrode, coiled platinum wire as a counter electrode and the gold disk as a working electrode at a fixed voltage of −0.7 using PalmSens potentiostat. Degassed PBS was used as an electrolyte.
EIS measurements were performed on gold electrodes functionalised with OrX liposomes (either Or10a or Or22a), OrX/Orco liposomes, or empty liposomes prior to and after target ligand or control ligand incubation with increasing concentrations (1 aM to 100 μM). Dose response curves were obtained by defining sensor response as −(ΔRp/R^op) versus log[C(Ligand)]. FIG. 4a presents the EIS response in terms of Nyquist plot for the Or10a liposome functionalized sensors when exposed to a solution containing one of the known target ligands of Or10a, methyl salicylate, at various concentrations. […] The dose response curve (FIG. 4b) was obtained by plotting the change in polarization resistance −(ΔRp/R^op) versus log[conc(Ligand)], as the sensor response. […]

[6] = molecular target: T3, Or35a (Drosophila melanogaster, UniProt Q9V3Q2); assay: EIS sensor, Or35a liposomes on gold electrode; format: biochemical
T3 construct: his-tag; made in house; host or cells: baculovirus-infected Sf9 cells
T3 sequence (Q9V3Q2 1-409): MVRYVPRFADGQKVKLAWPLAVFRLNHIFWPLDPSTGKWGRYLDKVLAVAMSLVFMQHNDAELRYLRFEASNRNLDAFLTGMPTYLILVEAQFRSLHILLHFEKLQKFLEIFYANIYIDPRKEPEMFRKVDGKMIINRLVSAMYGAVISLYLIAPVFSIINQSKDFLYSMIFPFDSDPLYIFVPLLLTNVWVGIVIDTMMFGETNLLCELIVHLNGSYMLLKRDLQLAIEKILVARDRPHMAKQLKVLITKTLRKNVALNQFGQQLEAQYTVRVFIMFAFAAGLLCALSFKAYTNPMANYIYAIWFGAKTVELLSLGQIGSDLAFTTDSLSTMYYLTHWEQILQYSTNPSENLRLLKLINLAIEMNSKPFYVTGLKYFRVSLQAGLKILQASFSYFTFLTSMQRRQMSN
Procedure: as §1, §2
EIS measurements were performed on gold electrodes functionalised with OrX liposomes (either Or10a or Or22a), OrX/Orco liposomes, or empty liposomes prior to and after target ligand or control ligand incubation with increasing concentrations (1 aM to 100 μM). Dose response curves were obtained by defining sensor response as −(ΔRp/R^op) versus log[C(Ligand)]. FIG. 4a presents the EIS response in terms of Nyquist plot for the Or10a liposome functionalized sensors when exposed to a solution containing one of the known target ligands of Or10a, methyl salicylate, at various concentrations. […] The dose response curve (FIG. 4b) was obtained by plotting the change in polarization resistance −(ΔRp/R^op) versus log[conc(Ligand)], as the sensor response. Here, Rp is the polarization resistance after Or10a liposome-target interaction and R^op is the polarization resistance before Or10a liposome-target interaction.
(§3) Prior to use, 1 mg liposomes (500 μl at 2 mg/ml) were defrosted on ice and then destabilized by incubating with 0.2% CHAPS for 15 min at room temperature. […] All Or35a/Orco integrated liposomes samples were analysed by Western blot before being aliquoted and stored at −80° C. Integration of Or35a/Orco into liposomes was assessed by density gradient ultracentrifugation (DGU) using Accudenz (Accurate Chemical & Scientific Corporation, USA). […]

[7] = molecular target: T4, Or35a/Orco (Drosophila melanogaster, UniProt Q9V3Q2); assay: EIS sensor, Or35a/Orco liposomes on gold electrode; format: biochemical
T4 construct: his-tag; made in house; host or cells: baculovirus-infected Sf9 cells
T4 sequence (Q9V3Q2 1-409): T3 sequence (Q9V3Q2 1-409)
T4 sequence (Q9VNB5 1-486 partner): T1 sequence (Q9VNB5 1-486 partner)
Procedure: as §1
as §2, with “electrolyte. […]” for “electrolyte.”
as §3

[8] = tested on: ECB (Z) OR3/Orco; conditions: cited from earlier work
[9] = tested on: OscaOR1/Orco; conditions: ref 47; * estimated visually from graph; cited from earlier work
[10] = tested on: DiOR1/Orco; conditions: ref 48; * estimated visually from graph; cited from earlier work
[11] = tested on: MsiOR1/Orco; conditions: ref 48; * estimated visually from graph; cited from earlier work
[12] = tested on: PxOR1/Orco; conditions: ref 14; * estimated visually from graph; cited from earlier work
[13] = tested on: AgOr65/Orco; conditions: cited from earlier work
[14] = tested on: AgOr48/Orco; conditions: cited from earlier work
[15] = EIS dose response, ligand 1 aM to 100 μM

## CCCCCC(C)=O [2-heptanone]
[1]
  EC50: 45.6 µM
[1]; ref 14, * estimated visually from graph
  Sensitivity limit: 10^−8-10^−6 M*

## CCc1ccc(OC)c(O)c1 [4-ethyl guaiacol]
[2]
  ion channel activity: active ligand gated ion channel

## CCC/C=C\C=C\CCCCCCCCC=O [Bonnbykal]
[3]
  Sensitivity limit: 10^−8-10^−6 M*

## CCC/C=C\C=C\CCCCCCCCCO [Bonnbykol]
[4]
  Sensitivity limit: 10^−8-10^−6 M*

## CCC/C=C/C=O [E2-hexenal]
[5]
  sensor response to ligand: negligible responses
[6]; [15]
  limit of detection (LOD): 10 fM
[6]; Table 3
  Detection Range: 10^−14 to 10^−6 M
[7]; [15]
  limit of detection: 0.1 fM
[7]; Table 3
  Detection Range: 10^−16-10^−6 M

## CC/C=C/CCCCCCCCCCOC(C)=O [E11 pheromone]
[8]
  Sensitivity limit: 10^−9 M

## CC/C=C/CCCCCCCCCCO [E11-14:OH]
[9]
  Sensitivity limit: 10^−7 M*

## CCCC/C=C/CCCCCCCCCC=O [Ell-16:Ald]
[10]
  Sensitivity limit: 10^−7 M*

## CCCC/C=C\CCCCCCCCCCOC(C)=O [Z11-16:Ac]
[11]
  Sensitivity limit: 10^−7 M*

## CCCC/C=C\CCCCCCCCCC=O [Z11-16:Ald]
[12]
  Sensitivity limit: 10^−8-10^−6 M*

## C=CCc1ccc(O)c(OC)c1 [eugenol]
[13]; log value
  Ec50 (given as Log): Log = −6.54
[13]; ref 43, * estimated visually from graph
  Sensitivity limit (given as Log): Log = −7*

## CCCCCCCCC1CCC(=O)O1 (stereo not shown) [g-dodecalactone]
[14]; log value
  Ec50 (given as Log): Log = −7.01
[14]; ref 45, * estimated visually from graph
  Sensitivity limit (given as Log): Log = −8*
